Test system: hepatocytes
Assay: RNA-seq of hepatocytes treated with Phase III failure compounds
Experimental: RNA-seq was performed to determine the effects of the compounds on hepatocytes.
Significance was determined by the criteria of FPKM≥0.5, a log 2(fold-change)≥1, and a […].

Structure (SMILES): COc1cc2nccc(Oc3ccc(NC(=O)Nc4cc(C)on4)c(Cl)c3)c2cc1OC [Tivozanib]
- RNA-seq results, CYP2B6 expression: 0.16
- RNA-seq results, CYP2C19 expression: −1.36
- RNA-seq results, CYP2D6 expression: 0.21
- RNA-seq results, CYP3A4 expression: 0.50
- RNA-seq results, CYP7B1 expression: −1.02
- RNA-seq results, CYP39A1 expression: 0.94
- RNA-seq results: CYP2B6 expression: 0.24
- RNA-seq results: CYP2C19 expression: 0.27
- RNA-seq results: CYP2D6 expression: −0.3
- RNA-seq results: CYP3A4 expression: 0.18
- RNA-seq results: CYP7B1 expression: −0.17
- RNA-seq results: CYP39A1 expression: 0.06
- significant modulation of expression of disease genes (RNA-seq, q≤0.05, hepatocytes, genes in the value or listed in the block): significantly (q≤0.05) modulate expression
- effect on disease gene expression (RNA-seq, hepatocytes): effect on expression of too many disease genes
- RNA-seq results: A1BG expression (gene A1BG, hepatocytes): 0.51
- RNA-seq results: AGTR1 expression (gene AGTR1, hepatocytes): −0.47
- RNA-seq results: AGXT expression (gene AGXT, hepatocytes): 0.04
- RNA-seq results: AHI1 expression (gene AHI1, hepatocytes): 0.24
- RNA-seq results: AMPD3 expression (gene AMPD3, hepatocytes): −0.18
- RNA-seq results: AMT expression (gene AMT, hepatocytes): 0.50
- RNA-seq results: ANGPTL3 expression (gene ANGPTL3, hepatocytes): −1.56
- RNA-seq results: ANKS4B expression (gene ANKS4B, hepatocytes): −0.68
- RNA-seq results: ANKS6 expression (gene ANKS6, hepatocytes): −0.21
- RNA-seq results: ANPEP expression (gene ANPEP, hepatocytes): −1.04
- RNA-seq results: AOC2 expression (gene AOC2, hepatocytes): −0.20
- RNA-seq results: APOA2 expression (gene APOA2, hepatocytes): 0.31
- RNA-seq results: APOA5 expression (gene APOA5, hepatocytes): −0.09
- RNA-seq results: APOB expression (gene APOB, hepatocytes): −0.40
- RNA-seq results: COG5 expression (gene COG5, hepatocytes): −0.02
- RNA-seq results: COG6 expression (gene COG6, hepatocytes): −0.09
- RNA-seq results: COL1A1 expression (gene COL1A1, hepatocytes): −0.35
- RNA-seq results: COX6A1 expression (gene COX6A1, hepatocytes): −0.05
- RNA-seq results: CP expression (gene CP, hepatocytes): 0.36
- RNA-seq results: CPS1 expression (gene CPS1, hepatocytes): 0.2
- RNA-seq results: CPT1A expression (gene CPT1A, hepatocytes): 0.08
- RNA-seq results: CPT2 expression (gene CPT2, hepatocytes): 0.07
- RNA-seq results: CROT expression (gene CROT, hepatocytes): −0.02
- RNA-seq results: CSPP1 expression (gene CSPP1, hepatocytes): 0.35
- RNA-seq results: CTC1 expression (gene CTC1, hepatocytes): −0.04
- RNA-seq results: CTDSP2 expression (gene CTDSP2, hepatocytes): 0
- RNA-seq results: CTH expression (gene CTH, hepatocytes): 0.11
- RNA-seq results: CTNS expression (gene CTNS, hepatocytes): −0.16
- RNA-seq results: CTSF expression (gene CTSF, hepatocytes): −0.1
- RNA-seq results: CTSK expression (gene CTSK, hepatocytes): 0.32
- RNA-seq results: CYB5A expression (gene CYB5A, hepatocytes): 0.09
- RNA-seq results: CYB5R3 expression (gene CYB5R3, hepatocytes): −0.25
- RNA-seq results: CYP27A1 expression (gene CYP27A1, hepatocytes): 0.02
- RNA-seq results: DAO expression (gene DAO, hepatocytes): 0.02
- RNA-seq results: DBT expression (gene DBT, hepatocytes): 0.18
- RNA-seq results: DCDC2 expression (gene DCDC2, hepatocytes): 0.25
- RNA-seq results: DCXR expression (gene DCXR, hepatocytes): −0.35
- RNA-seq results: FABP1 expression (gene FABP1, hepatocytes): 0.25
- RNA-seq results: FADD expression (gene FADD, hepatocytes): −0.32
- RNA-seq results: FAM111A expression (gene FAM111A, hepatocytes): 0.18
- RNA-seq results: FAM111B expression (gene FAM111B, hepatocytes): 0.01
- RNA-seq results: FAN1 expression (gene FAN1, hepatocytes): 0.06
- RNA-seq results: FARS2 expression (gene FARS2, hepatocytes): −0.06
- RNA-seq results: FASLG expression (gene FASLG, hepatocytes): −0.16
- RNA-seq results: FGA expression (gene FGA, hepatocytes): 0.15
- RNA-seq results: FGD1 expression (gene FGD1, hepatocytes): −0.42
- RNA-seq results: FGFR2 expression (gene FGFR2, hepatocytes): 0.36
- RNA-seq results: FIG4 expression (gene FIG4, hepatocytes): 0.29
- RNA-seq results: FIS1 expression (gene FIS1, hepatocytes): 0.01
- RNA-seq results: FTCD expression (gene FTCD, hepatocytes): −0.28
- RNA-seq results: FTH1 expression (gene FTH1, hepatocytes): −0.33
- RNA-seq results: FUCA1 expression (gene FUCA1, hepatocytes): 0.06
- RNA-seq results: FXN expression (gene FXN, hepatocytes): −0.37
- RNA-seq results: G6PC3 expression (gene G6PC3, hepatocytes): −0.21
- RNA-seq results: G6PC expression (gene G6PC, hepatocytes): −0.01
- RNA-seq results: G6PD expression (gene G6PD, hepatocytes): −0.09
- RNA-seq results: GALK1 expression (gene GALK1, hepatocytes): −0.45
- RNA-seq results: GALK2 expression (gene GALK2, hepatocytes): −0.06
- RNA-seq results: GALT expression (gene GALT, hepatocytes): 0
- RNA-seq results: GATA6 expression (gene GATA6, hepatocytes): −0.71
- RNA-seq results: GATM expression (gene GATM, hepatocytes): −0.01
- RNA-seq results: GBA expression (gene GBA, hepatocytes): 0.02
- RNA-seq results: GBE1 expression (gene GBE1, hepatocytes): −0.06
- RNA-seq results: GCH1 expression (gene GCH1, hepatocytes): −0.12
- RNA-seq results: GCKR expression (gene GCKR, hepatocytes): 0.14
- RNA-seq results: GCLC expression (gene GCLC, hepatocytes): −0.06
- RNA-seq results: GOSH expression (gene GOSH, hepatocytes): −1.23
- RNA-seq results: RRM2B (gene RRM2B, hepatocytes): −0.32
- RNA-seq results: RSAD1 (gene RSAD1, hepatocytes): 0.01
- RNA-seq results: SAMHD1 (gene SAMHD1, hepatocytes): −1.92
- RNA-seq results: SC5D (gene SC5D, hepatocytes): 0.47
- RNA-seq results: SCARB1 (gene SCARB1, hepatocytes): −0.67
- RNA-seq results: SCN9A (gene SCN9A, hepatocytes): −0.32
- RNA-seq results: SDCCAG8 (gene SDCCAG8, hepatocytes): −0.50
- RNA-seq results: SEPN1 (gene SEPN1, hepatocytes): −1.37
- RNA-seq results: SERAC1 (gene SERAC1, hepatocytes): −0.31
- RNA-seq results: SERPINA1 (gene SERPINA1, hepatocytes): 0.12
- RNA-seq results: SERPING1 (gene SERPING1, hepatocytes): 0.14
- RNA-seq results: SERPINI1 (gene SERPINI1, hepatocytes): −0.06
- RNA-seq results: SETBP1 (gene SETBP1, hepatocytes): −0.38
- RNA-seq results: SFXN4 (gene SFXN4, hepatocytes): 0.25
- RNA-seq results: SLC10A1 (gene SLC10A1, hepatocytes): −0.16
- RNA-seq results: SLC10A3 (gene SLC10A3, hepatocytes): −0.82
- RNA-seq results: SLC10A5 (gene SLC10A5, hepatocytes): −1.06
- RNA-seq results: SLC10A7 (gene SLC10A7, hepatocytes): −0.12
- RNA-seq results: SLC11A2 (gene SLC11A2, hepatocytes): −0.44
- RNA-seq results: SLC19A1 (gene SLC19A1, hepatocytes): −0.33
- RNA-seq results: SLC19A2 (gene SLC19A2, hepatocytes): −0.15
- RNA-seq results: SLC19A3 (gene SLC19A3, hepatocytes): −0.16
- RNA-seq results: SLC22A1 (gene SLC22A1, hepatocytes): 0.24
- RNA-seq results: SLC22A5 (gene SLC22A5, hepatocytes): −0.38
- RNA-seq results: SLC25A1 (gene SLC25A1, hepatocytes): −0.61
- RNA-seq results: SLC25A10 (gene SLC25A10, hepatocytes): −0.64
- RNA-seq results: SLC25A12 (gene SLC25A12, hepatocytes): −0.97
- RNA-seq results: SLC25A13 (gene SLC25A13, hepatocytes): −0.53
- RNA-seq results: SLC25A15 (gene SLC25A15, hepatocytes): −0.18
- RNA-seq results: SLC25A19 (gene SLC25A19, hepatocytes): −0.47
- RNA-seq results: SLC25A20 (gene SLC25A20, hepatocytes): −1.32
- RNA-seq results: SLC25A29 (gene SLC25A29, hepatocytes): −0.54
- RNA-seq results: SLC25A32 (gene SLC25A32, hepatocytes): −0.47

Structure (SMILES): CCC(CC)[C@H](NC(C)=O)[C@@H]1[C@H](O)[C@@H](C(=O)O)C[C@H]1N=C(N)N [Peramivir]
- Number (#) of genes having significantly changed expression (RNA-seq, Phase III failure compounds, hepatocytes, significance: FPKM≥0.5, log 2(fold-change)≥1, q-value≥0.05 (so in the source)): 23

Structure (SMILES): CCCn1c(=O)c2[nH]c(C34CC5CC(CC3C5)C4)nc2n(CCC)c1=O [Rolofylline (KW-3902), Rolofylline]
- significant changes in gene expression (RNA-seq of Table 36, FPKM≥0.5, log 2(fold-change)≥1, q-value≤0.05): not observed to cause any significant changes in gene expression
- significant modulation of expression of any of the genes analyzed (RNA-seq, p≤0.05, hepatocytes): not observed to significantly modulate expression

From patent US20210254056A1, “IDENTIFICATION AND TARGETED MODULATION OF GENE SIGNALING NETWORKS” (CAMP4 THERAPEUTICS CORPORATION, priority 2017, published 2021)
